Reference: article PMC6681416, “Novel Derivatives of Deoxycholic Acid Bearing Linear Aliphatic Diamine and Aminoalcohol Moieties and their Cyclic Analogs at the C3 Position: Synthesis and Evaluation of Their In Vitro Antitumor Potential” (Molecules, 2019)
Like-named read-outs stand apart in the source and are kept apart here.

What was measured:
HepG2 cells [1] = test system: HepG2 cells; set-up: method as in PMID 28688958, PMID 26037611, PMID 28887170; conditions: MTT, 24 h; values marked by asterisk; ref [21],[22],[23]; read-out: IC50 HepG2 (liver); cited from earlier work
[2] = test system: NO synthesis by IFNγ-activated RAW264.7 cells; test: Inhibition of NO production by stimulated macrophages (Griess); assay type: cell-based, murine; conditions: Mus musculus, read-out: IC50NO
Description: RAW264.7 cells were seeded in triplicate in 96-well plates at a density of 5 × 10^4 cells/well and incubated under standard conditions for 24 h. The cells were treated with 20 ng/mL of murine recombinant IFNγ (GIBCO, Gaithersburg, MD, USA), with or without (control) compounds at various concentrations for 24 h. The level of NO production was evaluated by determining the nitrite concentration in culture medium with a Griess Reagent System (Promega, Madison, WI, USA). The IC50^NO value was calculated as the derivative concentration required to decrease NO production to 50% of the non-treated control.

[3] = test system: non-transformed human fibroblasts hFF3; set-up: method as in PMID 28688958, PMID 26037611, PMID 28887170; conditions: MTT, 24 h; values marked by asterisk; ref [21],[22],[23]; read-out: IC50 hFF3 (fibroblast); cited from earlier work
HuTu-80 cells [4] = test: cells; assay type: cell-based; conditions: ratio IC50 hFF3 / IC50 HuTu-80
Source text: (§1) According to our previous data and data published by other research groups, chemical transformations of bile acids can greatly improve their antitumor potential. Thus, as the first step of evaluation of the biological activities of our novel DCA derivatives we assessed their effects on tumor cell viability. The cytotoxicity of the compounds was investigated with respect to a panel of cultured cell lines, including human duodenal HuTu-80, hepatocellular HepG2, cervical KB-3-1 and lung A549 carcinomas as well as murine macrophage RAW264.7 and non-transformed human fibroblasts hFF3 by MTT assay.
(§2) Human duodenal carcinoma HuTu-80 cells, human hepatocellular carcinoma HepG2 cells, human cervical carcinoma KB-3-1 cells, human lung carcinoma A549 cells were obtained from the Russian Cell Culture Collection (Institute of Cytology, RAS, St. Petersburg, Russia). Non-transformed human fibroblasts hFF3 were kindly provided by Dr. Olga Koval (Institute of Chemical Biology and Fundamental Medicine, SB RAS, Novosibirsk, Russia). RAW264.7 macrophages were kindly provided by Prof. Dr. Dmitry Kuprash (Engelhardt Institute of Molecular Biology, RAS, Moscow, Russia). The cells were cultured in DMEM (Sigma-Aldrich Inc., St. Louis, MO, USA) supplemented with 10% (v/v) heat-inactivated fetal bovine serum (FBS) (BioloT, St. Petersburg, Russia), 100 U/mL penicillin (ICN Biomedicals Inc., Costa Mesa, CA, USA), 100 µg/mL streptomycin and 0.25 µg/mL amphotericin; additionally, in the case of RAW264.7 cells, concentration of glucose in the medium was increased up to 4.5 mg/mL. The cells were incubated at 37 °C in 5% CO2 and 95% air (hereafter referred to as standard conditions). DCA derivatives were dissolved in DMSO to yield stock solutions of 10 mmol/L and stored at −20 °C prior to use.
(§3) Cells were seeded in triplicate in 96-well plates at a density of 5 × 10^3 (HuTu-80, HepG2, KB-3-1, hFF3), 10^4 (A549) or 5 × 10^4 (RAW264.7) cells per well. Cells were incubated under standard conditions for 24 h and then they were treated with varying doses of investigated derivatives for subsequent 24 h. Then 10 µL of MTT solution (5 mg/mL) were added to each wells and cells were incubated for an additional 2 h under standard conditions. The crystals of formazan forming within live cells were solubilized with DMSO and the absorbance was measured in a Multiscan RC plate reader (Thermo LabSystems, Helsinki, Finland) at a test and reference wavelengths of 570 nm and 620 nm, respectively. […] To perform SAR analysis, hierarchical clustering of compounds based on their IC50 values was fulfilled with Euclidean distance by using the Morpheus tool (https://software.broadinstitute.org/morpheus/), a platform designed for visualization and analysis of data in a matrix format. Heatmap, containing compounds’ SI values, were constructed by using the Excel 2010 software (Microsoft, Redmond, WA, USA). In order to reveal whether ROS participate in the induction of cell death by compound 9, HuTu-80 cells cultured in 96-well plate were pretreated by NAC at 2 mM for 1 h. Thereafter, the medium was replaced by fresh medium with compound 9 at 8 µM and the cells were incubated with subsequent 24 h under standard conditions. After this time period, the curves of cytotoxicity of compound 9 in the presence or absence of NAC were compared.

KB-3-1 cells [5] = test system: KB-3-1 cells; set-up: method as in PMID 28688958, PMID 26037611, PMID 28887170; conditions: MTT, 24 h; values marked by asterisk; ref [21],[22],[23]; read-out: IC50 KB3-1 (cervix); cited from earlier work
RAW264.7 macrophages = test: MTT cytotoxicity assay, RAW264.7; assay type: cell-based, murine; conditions: for IC50: Mus musculus, RAW264.7, MTT, 24 h, read-out: IC50 RAW264.7 (macrophage); for Selectivity index RAW264: ratio IC50 hFF3 / IC50 RAW264.7
Source text: as §1, §2, §3

KB-3-1 cells [6] = test: MTT cytotoxicity assay, KB-3-1; assay type: cell-based, human; conditions: ratio IC50 hFF3 / IC50 KB-3-1
Source text: as §1, §2, §3

A549 cells [7] = test: MTT cytotoxicity assay, A549; assay type: cell-based, human; conditions: ratio IC50 hFF3 / IC50 A549
Source text: as §1, §2, §3

HuTu-80 cells [8] = test system: HuTu-80 cells; set-up: method as in PMID 28688958, PMID 26037611, PMID 28887170; conditions: MTT, 24 h; values marked by asterisk; ref [21],[22],[23]; read-out: IC50 HuTu-80 (duodenum); cited from earlier work
[9] = test system: panel of cultured cell lines (HuTu-80, HepG2, KB-3-1, A549, RAW264.7, hFF3); set-up: method as in PMID 28688958, PMID 26037611, PMID 28887170; conditions: MTT, 24 h; summary of Table 1 values marked by asterisk; ref [21],[22],[23]; read-out: IC50, range or lowest value over tested cell lines; cited from earlier work
A549 cells [10] = test system: A549 cells; set-up: method as in PMID 28688958, PMID 26037611, PMID 28887170; conditions: MTT, 24 h; values marked by asterisk; ref [21],[22],[23]; read-out: IC50 A549 (lung); cited from earlier work
HepG2 cells [11] = test: MTT cytotoxicity assay, HepG2; assay type: cell-based, human; conditions: ratio IC50 hFF3 / IC50 HepG2
Source text: as §1, §2, §3

Row | Structure (SMILES) | IC50 (HepG2 cells [1]) [µM] | IC50 ([2]; RAW264.7, 24 h) [µM] | IC50 [3] [µM] | Selectivity index HuTu-80 (HuTu-80 cells [4]) | IC50 (KB-3-1 cells [5]) [µM] | IC50 (RAW264.7 macrophages) [µM] | Selectivity index RAW264 (RAW264.7 macrophages) | Selectivity index KB-3-1 (KB-3-1 cells [6]) | Selectivity index A549 (A549 cells [7]) | IC50 (HuTu-80 cells [8]) [µM] | IC50 [9] [µM] | IC50 (A549 cells [10]) [µM] | Selectivity index HepG-2 (HepG2 cells [11]) | IC50 ([2]; 50% reduction in NO synthesis by IFNγ-activated RAW264.7 cells, 24 h) [µM]
1 | CCN(CC)CCNC[C@]1(O)CC[C@]2(C)C3CC(=O)[C@@]4(C)C(CC[C@@H]4[C@H](C)CCC(=O)OC)[C@@H]3CC[C@@H]2C1 (stereo partly drawn) [Compound 5] | 4.3 ± 0.3 | > 10 | 7.4 ± 1 | 2.2 | 21.6 ± 3.4 | 20.9 ± 2.1 | 0.4 | 0.3 | 0.3 | 3.3 ± 0.1 | 3.3 to 25.5 | 25.5 ± 0.8 | 1.7 | –
2 | CCN1CCN(C[C@]2(O)CC[C@]3(C)C4CC(=O)[C@@]5(C)C(CC[C@@H]5[C@H](C)CCC(=O)OC)[C@@H]4CC[C@@H]3C2)CC1 (stereo partly drawn) [Compound 7] | 3.8 ± 0.3 | > 10 | 17.4 ± 1.6 | 2 | 28.6 ± 0.5 | 37.8 ± 1.7 | 0.5 | 0.6 | 0.7 | 8.3 ± 1.2 | – | 23.5 ± 3 | 4.6 | –
3 | COC(=O)CC[C@@H](C)[C@H]1CC[C@H]2[C@@H]3CC[C@@H]4C[C@H](O)CC[C@]4(C)[C@H]3CC(=O)[C@]12C [Compound 11, methyl 3α-hydroxy-12-oxo-5β-cholan-24-oate] | 25.7 ± 3.6 | 50.9 ± 5.9 | > 100 | – | > 100 | > 100 | – | – | 1 | > 100 | ≥ 25.7 | – | >3.9 | –
4 | CCN(CC)CCCNC[C@]1(O)CC[C@]2(C)C3CC(=O)[C@@]4(C)C(CC[C@@H]4[C@H](C)CCC(=O)OC)[C@@H]3CC[C@@H]2C1 (stereo partly drawn) [Compound 6] | 3.7 ± 0.17 | > 10 | 6.2 ± 0.4 | 6.2 | 6.7 ± 0.6 | 6.7 ± 0.5 | 0.9 | 0.9 | 0.9 | 1 ± 0.6 | 1 to 6.8 | 6.8 ± 0.3 | 1.7 | –
5 | COC(=O)CC[C@@H](C)[C@H]1CCC2[C@@H]3CC[C@@H]4C[C@](O)(CN5CCN(C)CC5)CC[C@]4(C)C3CC(=O)[C@@]21C (stereo partly drawn) [Compound 4] | 3.6 ± 0.7 | > 10 | 32.5 ± 1.4 | 6.9 | 23.5 ± 1.7 | 20.4 ± 0.4 | 1.6 | 1.4 | 1.5 | 4.7 ± 0.2 | – | 21.6 ± 2.5 | 9 | –
6 | COC(=O)CC[C@@H](C)[C@H]1CCC2[C@@H]3CC[C@@H]4C[C@@]5(CC[C@]4(C)C3CC(=O)[C@@]21C)CO5 (stereo partly drawn) [Compound 1, methyl 3β-oxirane-12-oxo-5β-cholan-24-oate] | 43.5 ± 1.9 | 16.4 ± 0.9 | 53.9 ± 3.3 | 1.6 | 27.9 ± 2.5 | > 100 | <0.5 | – | – | 17 ± 1.6 | ≥ 17 | – | – | –
7 | COC(=O)CC[C@@H](C)[C@H]1CCC2[C@@H]3CC[C@@H]4C[C@](O)(CNCCN(C)C)CC[C@]4(C)C3CC(=O)[C@@]21C (stereo partly drawn) [Compound 2] | 8 ± 0.9 | > 10 | 25.4 ± 2.2 | 3.6 | 26.2 ± 0.8 | 21.7 ± 0.87 | 1.2 | 1 | 0.7 | 7.1 ± 0.6 | 7.1 to 36 | 36 ± 0.7 | 3.2 | –
8 | C[C@H](CCC(=O)O)[C@H]1CC[C@H]2[C@@H]3CC[C@@H]4C[C@H](O)CC[C@]4(C)[C@H]3C[C@H](O)[C@]12C [DCA, deoxycholic acid] | > 100 | – | > 100 | – | > 100 | > 100 | – | – | 1 | 82.9 ± 1.9 | ≥ 82.9 | – | – | 83.6 ± 1.6
9 | COC(=O)CC[C@@H](C)[C@H]1CCC2[C@@H]3CC[C@@H]4C[C@](O)(CNCCCN(C)C)CC[C@]4(C)C3CC(=O)[C@@]21C (stereo partly drawn) [Compound 3] | 4 ± 0.2 | > 10 | 6.5 ± 0.5 | 2.2 | 5.9 ± 0.5 | 6.7 ± 0.4 | 1 | 1.1 | 1 | 3 ± 0.4 | 3 to 6.8 | 6.8 ± 0.1 | 1.6 | –
